From patent publication US10294202B2, “Pyrrolidinones as herbicides” (FMC Corporation, priority 2013, dated 2019)

What was measured:
bromegrass, downy = test: Test C pre-/postemergence herbicide test; format: in vivo, Bromus tectorum
Summary of the method: (§1)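 Response scores range from 0, meaning no effect, to 100, meaning complete control, assigned visually by comparison with controls roughly two weeks (13 to 15 days) after spraying. Applications were made preemergence to seeded loam–sand soil and postemergence to 1- to 4-leaf plants.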

nightshade = test: Test C pre-/postemergence herbicide test; format: in vivo, Solanum ptycanthum; details: Preemergence
Summary of the method: as §1

cupgrass, woolly = test: Test C pre-/postemergence herbicide test; format: in vivo, Eriochloa villosa
Summary of the method: as §1

watergrass, late = test: Test F flood (paddy) test; format: in vivo, Echinochloa oryzicola; details: 21 d, scale 0-100
Summary of the method: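 Compounds were applied directly to paddy water held 3 cm above silt loam soil, with rice and weeds at the 2.0–2.5-leaf stage, grown in a greenhouse at 30/27° C under a 16-h photoperiod. Visual ratings (0 no effect to 100 complete control) were made against untreated controls after 21 d.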

wheat, spring = test: Test D pre-/postemergence herbicide test; format: in vivo, Triticum aestivum; details: for Plant response rating: Postemergence, Wheat, Spring, scale 0 to 100; for Plant response rating, Wheat, Spring: Preemergence, scale 0 to 100 (0 no effect, 100 complete control)
Text: Seeds of plant species selected from bluegrass (annual bluegrass, Poa annua), blackgrass (Alopecurus myosuroides), canarygrass (littleseed canarygrass, Phalaris minor), chickweed (common chickweed, Stellaria media), galium (catchweed bedstraw, Galium aparine), bromegrass, downy (downy bromegrass, Bromus tectorum), field poppy (Papaver rhoeas), field violet (Viola arvensis), foxtail, green (green foxtail, Setaria viridis), deadnettle (henbit deadnettle, Lamium amplexicaule), ryegrass, Italian (Italian ryegrass, Lolium multiflorum), kochia (Kochia scoparia), lambsquarters (Chenopodium album), oilseed rape (Brassica napus), pigweed (Amaranthus retroflexus), chamomile (scentless chamomile, Matricaria inodora), Russian thistle (Salsola kali), speedwell (bird's-eye speedwell, Veronica persica), barley, spring (spring barley, Hordeum vulgare), wheat, spring (spring wheat, Triticum aestivum), buckwheat, wild (wild buckwheat, Polygonum convolvulus), mustard, wild (wild mustard, Sinapis arvensis), oat, wild (wild oat, Avena fatua), radish, wild (wild radish, Raphanus raphanistrum), […]), barley, winter (winter barley, Hordeum vulgare), and wheat, winter (winter wheat, Triticum aestivum) were planted into a silt loam soil and treated preemergence with test chemicals formulated in a non-phytotoxic solvent mixture which included a surfactant. At the same time, these species were planted in pots containing Redi-Earth® planting medium (Scotts Company, 14111 Scottslawn Road, Marysville, Ohio 43041) comprising spaghnum peat moss, vermiculite, wetting agent and starter nutrients and treated with postemergence applications of the test chemicals formulated in the same manner. Plants ranged in height from 2 to 18 cm (1- to 4-leaf stage). Treated plants and controls were maintained in a controlled growth environment for 7 to 21 days after which time all species were compared to controls and visually evaluated. Plant response ratings, summarized in Table D, are based on a scale of 0 to 100 where 0 is no effect and 100 is complete control. A dash (-) response means no test result.

[1] = Preemergence, 62 g ai/ha, scale 0 to 100
[2] = Preemergence, 125 g ai/ha, scale 0 to 100 (0 no effect, 100 complete control)
[3] = Preemergence, 31 g ai/ha, scale 0 to 100 (0 no effect, 100 complete control)
[4] = Preemergence, 250 g ai/ha, scale 0 to 100 (0 no effect, 100 complete control)
[5] = 125 g ai/ha, scale 0 to 100 (0 no effect, 100 complete control)
[6] = Postemergence, 31 g ai/ha, scale 0 (no effect) to 100 (complete control)
[7] = Postemergence, 62 g ai/ha, scale 0 to 100 (0 no effect, 100 complete control)
[8] = Postemergence, 125 g ai/ha, scale 0 to 100 (0 no effect, 100 complete control)
[9] = Postemergence, 250 g ai/ha, scale 0 to 100 (0 no effect, 100 complete control)

| SMILES | Plant response rating, Bromegrass, Downy (bromegrass, downy; [1]) | Plant response rating, Bromegrass, Downy (bromegrass, downy; [2]) | Bromegrass, Downy plant response rating (bromegrass, downy; [3]) | Plant response rating, Bromegrass, Downy (bromegrass, downy; [4]) | Plant response rating, Nightshade (nightshade; 62 g ai/ha, scale 0 to 100) | Plant response rating, Nightshade (nightshade; [5]) | Plant response rating, Cupgrass, Woolly (cupgrass, woolly; [1]) | Plant response rating, Cupgrass, Woolly (cupgrass, woolly; [2]) | Cupgrass, Woolly plant response rating (cupgrass, woolly; [3]) | Plant response rating, Cupgrass, Woolly (cupgrass, woolly; [4]) | Plant response rating, Watergrass, Late (watergrass, late; 125 g ai/ha) | Plant response rating, Watergrass, Late (watergrass, late; 250 g ai/ha) | Plant response rating, Watergrass, Late (watergrass, late; 500 g ai/ha) | Plant response rating, Watergrass, Late (watergrass, late; 1000 g ai/ha) | Plant response rating, Watergrass, Late (watergrass, late; 2000 g ai/ha) | Plant response rating, Bromegrass, Downy (bromegrass, downy; [6]) | Plant response rating, Bromegrass, Downy (bromegrass, downy; [7]) | Plant response rating, Bromegrass, Downy (bromegrass, downy; [8]) | Plant response rating, Bromegrass, Downy (bromegrass, downy; [9]) | Plant response rating, Cupgrass, Woolly (cupgrass, woolly; [6]) | further results |
| --- | --- | --- | --- | --- | --- | --- | --- | --- | --- | --- | --- | --- | --- | --- | --- | --- | --- | --- | --- | --- | --- |
| O=C1NCCC1C(=O)N(c1ccc(F)c(F)c1)c1ccccc1F (centres unmarked) [Compound 5, N-(3,4-difluorophenyl)-N-(2-fluorophenyl)-2-oxo-3-pyrrolidinecarboxamide] | 0 | 0 | 0 | 0 | 45 | 45 | 85 | 90 | 80 | 95 | 55 | 70 | 75 | 100 | 100 |  |  |  |  |  |  |
| O=C1NCC(c2ccc(F)c(F)c2)C1C(=O)Nc1cccc(F)c1F (centres unmarked) [Compound 17, N-(2,3-difluorophenyl)-4-(3,4-difluorophenyl)-2-oxo-3-pyrrolidinecarboxamide] | 30 | 45 | 0 | 65 | 20 | 40 | 85 | 90 | 80 | 95 | 80 | 85 | 90 | 90 | 95 | 0 | 0 | 0 | 0 | 0 | Plant response rating, Cupgrass, Woolly (cupgrass, woolly; [7]): 0; Plant response rating, Cupgrass, Woolly (cupgrass, woolly; [8]): 0; Plant response rating, Cupgrass, Woolly (cupgrass, woolly; [9]): 0; Plant response rating (wheat, spring; 16 g ai/ha): 0; Plant response rating (wheat, spring; 31 g ai/ha): 0; Plant response rating (wheat, spring; 62 g ai/ha): 0; Plant response rating (wheat, spring; 125 g ai/ha): 0; Plant response rating (wheat, spring; 250 g ai/ha): 0 |
| O=C1NCC(c2ccc(Cl)c(F)c2)C1C(=O)Nc1cccc(F)c1F (centres unmarked) [Compound 52] | 0 | 0 | 0 | 0 | 0 | 0 | 70 | 75 | 40 | 85 |  |  |  |  |  | 0 | 0 | 0 | 10 | 0 | Plant response rating, Cupgrass, Woolly (cupgrass, woolly; [7]): 5; Plant response rating, Cupgrass, Woolly (cupgrass, woolly; [8]): 5; Plant response rating, Cupgrass, Woolly (cupgrass, woolly; [9]): 10; Plant response rating (wheat, spring; 16 g ai/ha): 0; Plant response rating (wheat, spring; 31 g ai/ha): 0; Plant response rating (wheat, spring; 62 g ai/ha): 0; Plant response rating (wheat, spring; 125 g ai/ha): 0; Plant response rating (wheat, spring; 250 g ai/ha): 0; Plant response rating, Wheat, Spring (wheat, spring; 62 g ai/ha): 0; Plant response rating, Wheat, Spring (wheat, spring; 125 g ai/ha): 0; Plant response rating, Wheat, Spring (wheat, spring; 16 g ai/ha): 0; Plant response rating, Wheat, Spring (wheat, spring; 31 g ai/ha): 0; Plant response rating, Wheat, Spring (wheat, spring; 250 g ai/ha): 0 |
